From ChEMBL document CHEMBL6182926, “Design, Synthesis, and Biological Activity Evaluation of Deuterated Diphenyl Azole Alcohol-Based CYP51 Inhibitors” (J Med Chem, 2025)
In brackets after ≈: the same amount, converted by molar mass.

What was measured:
[1] = (§1) Selectivity ratio, ratio of IC50 for cytotoxicity against human SH-SY5Y cells to MIC80 for antifungal activity against Candida albicans SC 5314; format: toxicity, cell-based
[2] = MRT (0 to infinity) in Sprague-Dawley rat at 3 mg/kg, iv by LC-MS/MS analysis; format: ADME, organism-based; settings: in vivo
Pichia kudriavzevii = experiment: Fungicidal index, ratio of MFC for fungicidal activity against Candida krusei AS 2.1045 to MIC80 for antifungal activity against Candida krusei AS 2.1045; format: functional
[3] = AUC (0 to infinity) in Sprague-Dawley rat at 3 mg/kg, iv by LC-MS/MS analysis; format: ADME, organism-based; settings: in vivo
Nakaseomyces glabratus = experiment: Fungicidal index, ratio of MFC for fungicidal activity against Clinical isolate Candida glabrata to MIC80 for antifungal activity against Clinical isolate Candida glabrata; format: functional
Cryptococcus neoformans [4] = experiment: Antifungal activity against Cryptococcus neoformans CGMCC 2.3161 assessed as reduction in ergosterol at 0.125 ug/ml measured after 18 hrs incubation by gas chromatography-mass spectrometry (GCMS) analysis (reference value: 94.48%); format: functional; parameters: scale not given: the % may be the effect or the level left; settings: dose 0.125 µg/ml
[5] = Subacute toxicity in ICR mouse assessed as mortality at 100 mg/kg, oral gavage for 14 consecutive days; format: organism-based; settings: in vivo, 336 h, time 14 day
Cryptococcus neoformans [6] = experiment: Antifungal activity against Cryptococcus neoformans CGMCC 2.3161 assessed as reduction in 14alpha-methylsterols at 0.125 ug/ml measured after 18 hrs incubation by gas chromatography-mass spectrometry (GCMS) analysis (reference value: 2.32%); format: functional; parameters: scale not given: the % may be the effect or the level left; settings: dose 0.125 µg/ml
[7] = Half life in Sprague-Dawley rat at 10 mg/kg, po by LC-MS/MS analysis; format: ADME, organism-based; settings: in vivo
Mus musculus = experiment: In vivo antifungal activity against Candida albicans SC5314 infected in ICR mouse model assessed as mouse survival at 5 mg/kg, oral gavage measured for 21 days post infection; format: functional; settings: 504 h, time 21 day
[8] = Selectivity ratio, ratio of IC50 for cytotoxicity against human SH-SY5Y cells to MIC80 for antifungal activity against Clinical isolate Candida glabrata; format: toxicity, cell-based
Candida albicans [9] = experiment: Antifungal activity against Candida albicans SC 5314 assessed as inhibition of visible growth; format: functional
Cryptococcus neoformans [10] = experiment: Inhibition of biofilm formation in Cryptococcus neoformans CGMCC 2.3161 assessed as inhibition of metabolic activity of biofilm measured after 24 hrs by XTT assay; format: functional
Cryptococcus neoformans [11] = experiment: Antifungal activity against Cryptococcus neoformans CGMCC 2.3161 assessed as reduction in Eburicol at 0.125 ug/ml measured after 18 hrs incubation by gas chromatography-mass spectrometry (GCMS) analysis; format: functional; parameters: scale not given: the % may be the effect or the level left; settings: dose 0.125 µg/ml
Candida albicans [12] = experiment: Antifungal activity against Candida albicans SC5314 assessed as reduction in ergosterol at 0.05 ug/ml measured after 18 hrs incubation by gas chromatography-mass spectrometry (GCMS) analysis (reference value: 96.72%); format: functional; parameters: scale not given: the % may be the effect or the level left; settings: dose 0.05 µg/ml
[13] = Selectivity ratio, ratio of IC50 for cytotoxicity against human SH-SY5Y cells to MIC80 for antifungal activity against Candida tropicalis CGMCC 2.3739; format: toxicity, cell-based
Cytochrome P450 1A2 = target: T1, Cytochrome P450 1A2 (Homo sapiens, UniProt P05177); experiment: Inhibition of CYP1A2 in human liver microsomes using phenacetin as substrate measured after 10 mins by LC/MS/MS analysis; format: ADME, Microsome
T1 sequence (P05177 whole entry): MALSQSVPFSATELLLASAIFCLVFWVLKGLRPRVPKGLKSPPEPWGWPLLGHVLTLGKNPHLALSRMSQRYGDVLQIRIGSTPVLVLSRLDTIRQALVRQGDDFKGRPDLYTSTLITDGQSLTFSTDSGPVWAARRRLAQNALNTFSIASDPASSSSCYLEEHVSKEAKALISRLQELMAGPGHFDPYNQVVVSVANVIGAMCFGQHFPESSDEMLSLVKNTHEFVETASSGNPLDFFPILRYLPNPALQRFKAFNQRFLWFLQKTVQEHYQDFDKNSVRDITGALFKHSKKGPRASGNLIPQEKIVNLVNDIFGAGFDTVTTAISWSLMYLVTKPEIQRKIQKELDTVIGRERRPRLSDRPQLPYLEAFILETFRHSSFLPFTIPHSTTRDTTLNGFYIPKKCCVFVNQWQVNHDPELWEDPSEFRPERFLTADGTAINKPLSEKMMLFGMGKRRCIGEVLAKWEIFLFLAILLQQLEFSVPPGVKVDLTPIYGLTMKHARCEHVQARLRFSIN

[14] = Metabolic stability in human liver microsomes assessed as compound remaining measured up to 60 mins by LC-MS/MS analysis; format: ADME, Microsome; settings: liver microsomes, read-out: Activity
[15] = Toxicity in ICR mouse assessed as structural alteration in kidney at 500 mg/kg, po single dose measured for 7 days by hematoxylin-eosin (H/E) staining analysis; format: organism-based; settings: in vivo, 168 h, time 7 day
Cryptococcus neoformans [16] = experiment: Antifungal activity against Cryptococcus neoformans CGMCC 2.3161 assessed as inhibition of visible growth; format: functional
Cryptococcus neoformans [17] = experiment: Antifungal activity against Cryptococcus neoformans CGMCC 2.3161 assessed as reduction in other sterol at 0.125 ug/ml measured after 18 hrs incubation by gas chromatography-mass spectrometry (GCMS) analysis (reference value: 2.20%); format: functional; parameters: scale not given: the % may be the effect or the level left; settings: dose 0.125 µg/ml
[18] = AUC (0 to infinity) in Sprague-Dawley rat at 10 mg/kg, po by LC-MS/MS analysis; format: ADME, organism-based; settings: in vivo
[19] = as §1; format: toxicity, cell-based; remark: listed apart in the source
Cryptococcus neoformans [20] = experiment: Fungicidal index, ratio of MFC for fungicidal activity against Cryptococcus neoformans CGMCC 2.3161 to MIC80 for antifungal activity against Cryptococcus neoformans CGMCC 2.3161; format: functional
[21] = Subacute toxicity in ICR mouse assessed as structural alteration in liver at 100 mg/kg, oral gavage for 14 consecutive days by hematoxylin-eosin (H/E) staining analysis; format: organism-based; settings: in vivo, 336 h, time 14 day
[22] = Tmax in Sprague-Dawley rat at 3 mg/kg, iv by LC-MS/MS analysis; format: ADME, organism-based; settings: in vivo
Candida albicans [23] = experiment: Antifungal activity against Candida albicans SC5314 assessed as reduction in Eburicol at 0.05 ug/ml measured after 18 hrs incubation by gas chromatography-mass spectrometry (GCMS) analysis; format: functional; parameters: scale not given: the % may be the effect or the level left; settings: dose 0.05 µg/ml
Candida albicans [24] = experiment: Antifungal activity against Candida albicans CPCC 400616 assessed as inhibition of visible growth; format: functional
Cytochrome P450 2D6 = Cytochrome P450 2D6 (Homo sapiens, UniProt P10635); experiment: Inhibition of CYP2D6 in human liver microsomes using dextromethorphan as substrate measured after 10 mins by LC/MS/MS analysis; format: ADME, Microsome
[25] = Selectivity ratio, ratio of IC50 for cytotoxicity against human SH-SY5Y cells to MIC80 for antifungal activity against Candida parapsilosis GIM 2.190; format: toxicity, cell-based
Cryptococcus neoformans [26] = experiment: Antifungal activity against Cryptococcus neoformans CGMCC 2.3161 assessed as reduction in Lanosterol at 0.125 ug/ml measured after 18 hrs incubation by gas chromatography-mass spectrometry (GCMS) analysis; format: functional; parameters: scale not given: the % may be the effect or the level left; settings: dose 0.125 µg/ml
Candida albicans [27] = experiment: Antifungal activity against Candida albicans SC5314 assessed as reduction in Obtusifoliol at 0.05 ug/ml measured after 18 hrs incubation by gas chromatography-mass spectrometry (GCMS) analysis; format: functional; parameters: scale not given: the % may be the effect or the level left; settings: dose 0.05 µg/ml

Sequence of Cytochrome P450 2D6 (P10635 whole entry): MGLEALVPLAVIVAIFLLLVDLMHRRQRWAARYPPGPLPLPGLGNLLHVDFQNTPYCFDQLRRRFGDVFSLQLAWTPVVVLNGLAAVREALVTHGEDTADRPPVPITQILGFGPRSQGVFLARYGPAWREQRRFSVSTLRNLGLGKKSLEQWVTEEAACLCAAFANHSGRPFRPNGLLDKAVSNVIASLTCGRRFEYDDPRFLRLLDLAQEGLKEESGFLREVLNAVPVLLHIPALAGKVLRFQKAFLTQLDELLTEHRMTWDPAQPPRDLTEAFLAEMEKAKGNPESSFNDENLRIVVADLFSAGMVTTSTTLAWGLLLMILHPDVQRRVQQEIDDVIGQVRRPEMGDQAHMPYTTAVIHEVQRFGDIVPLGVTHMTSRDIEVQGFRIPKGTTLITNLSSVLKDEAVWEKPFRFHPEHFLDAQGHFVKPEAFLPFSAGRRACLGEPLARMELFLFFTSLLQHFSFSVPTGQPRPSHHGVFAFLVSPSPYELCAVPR

## [2H]C([2H])([2H])N(Cc1ccc(-c2ccc(OC(F)(F)F)cc2)cc1)[C@H](C)[C@](O)(Cn1cncn1)c1ccc(F)cc1F
[1]
  selectivity ratio: > 100
[2]
  MRT inf: 2.32 h
Pichia kudriavzevii
  Activity_index: 10
[3]
  AUC: 2286 ng·h/mL
Nakaseomyces glabratus
  Activity_index: 40
Cryptococcus neoformans [4]
  Activity: 5.68%
[5]
  Activity: Non-toxic
Cryptococcus neoformans [6]
  Activity: 3.21%
[7]
  half-life: 265 min
Mus musculus
  survival at 5 mg/kg: 100%
[8]
  selectivity ratio: > 100
Candida albicans [9]
  MIC80: 6 ng/mL (≈ 0.0112 µM)
Cryptococcus neoformans [10]
  MIC50: 16 µg/mL (≈ 29.9 µM)
Cryptococcus neoformans [11]
  Activity: 47.42%
Candida albicans [12]
  Activity: 3.68%
[13]
  selectivity ratio: > 100
Cytochrome P450 1A2
  IC50: > 10 µM
[14]
  remaining at 1 h: 34.4%
[15]
  Activity: Non-toxic
Cryptococcus neoformans [16]
  MIC80: 0.012 µg/mL (≈ 0.0224 µM)
Cryptococcus neoformans [17]
  Activity: 11.5%
[18]
  AUC(0-inf): 4830 ng·h/mL
[19]
  selectivity ratio: > 100
Cryptococcus neoformans [20]
  Activity_index: 5
[21]
  Activity: Non-toxic
[22]
  Tmax: 4.98 min
Candida albicans [23]
  Activity: 46.42%
Candida albicans [24]
  MIC80: 6 ng/mL (≈ 0.0112 µM)
Cytochrome P450 2D6
  IC50: > 10 µM
[25]
  selectivity ratio: > 100
Cryptococcus neoformans [26]
  Activity: 6.14%
Candida albicans [27]
  Activity: 18%
